According to US7977358B2, “Pyrazol derivatives” (Hoffmann-La Roche Inc., priority 2007, dated 2011):

target: T1, human chemokine receptor 2 isoform B (CCR2B) (Homo sapiens, UniProt P41597); assay: Calcium mobilization assay; type: cell-based; conditions: CHOK1-CCR2B-A5 cells, 20 nM MCP-1, FLIPR
T1 construct: host or cells: CHOK1-CCR2B-A5 (CHO-K1) cells
T1 sequence (P41597 1-360 isoform P41597-2): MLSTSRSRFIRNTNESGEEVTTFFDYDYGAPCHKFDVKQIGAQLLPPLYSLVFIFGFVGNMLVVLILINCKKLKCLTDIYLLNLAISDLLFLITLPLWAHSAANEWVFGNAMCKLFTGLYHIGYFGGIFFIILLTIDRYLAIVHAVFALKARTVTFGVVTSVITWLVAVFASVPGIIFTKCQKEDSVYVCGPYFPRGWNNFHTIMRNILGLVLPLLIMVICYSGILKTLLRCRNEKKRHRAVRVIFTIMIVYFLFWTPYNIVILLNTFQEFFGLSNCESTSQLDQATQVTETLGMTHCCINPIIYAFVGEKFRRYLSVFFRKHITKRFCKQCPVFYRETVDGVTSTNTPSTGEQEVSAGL
Protocol: Calcium Mobilization Assay
CHOK1-CCR2B-A5 cells (from Euroscreen) stably overexpressing the human chemokine receptor 2 isoform B were cultured in Nutrient Hams F12 medium supplemented with 5% FBS, 100 U/ml penicillin, 100 μg/ml streptomycin, 400 μg/ml G418 and 5 μg/ml puromycin. For the assay cells were grown overnight in 384-well black clear flat bottom polystyrene plates (Costar) at 37° C. at 5% CO2. After washing with DMEM, 20 mM Hepes, 2.5 mM probenecid, 0.1% BSA (DMEM assay buffer) cells were loaded with 4 μM Fluo-4 in the same DMEM assay buffer for 2 hours at 30° C. Excess dye was removed and cells were washed with DMEM assay buffer. 384-well compound plates were prepared with DMEM assay buffer/0.5% DMSO with or without various concentrations of test compounds. Usually compounds were tested for agonist and antagonist activity.
Test compounds were added to the assay plate and agonist activity was monitored as fluorescence for 80 seconds with a FLIPR (488 nm excitation; 510-570 nm emission; Molecular Devices). After 20-30 min. of incubation at 30° C., 20 nM MCP-1 (R&D; Roche) was added and fluorescence was monitored again for 80 seconds. Increases in intracellular calcium are reported as maximum fluorescence after agonist exposure minus basal fluorescence before exposure. Antagonist activity is indicated as inhibitor concentration required for 50% inhibition of specific calcium increases.

SMILES | IC50 [nM]
Cc1nn(-c2cccc(OC(F)(F)F)c2)c(C)c1C(=O)N1CCC(N2CCCC2C)C1 (centres unmarked) [Example 122, [3,5-Dimethyl-1-(3-trifluoromethoxy-phenyl)-1H-pyrazol-4-yl]-(2-methyl-[1,3′]bipyrrolidinyl-1′-yl)-methanone] | 730
Cc1nn(-c2cccc(C(F)(F)F)c2)c(C)c1C(=O)N1CCC(N2CCOCC2)CC1 [Example 83, [3,5-Dimethyl-1-(3-trifluoromethyl-phenyl)-1H-pyrazol-4-yl]-(4-morpholin-4-yl-piperidin-1-yl)-methanone] | 658
CCN(CC)C1CCN(C(=O)c2c(C)nn(-c3cccc(/C=C/c4ccc(Cl)cc4)c3)c2C)C1 (centres unmarked) [Example 29, (1-{3-[(E)-2-(4-Chloro-phenyl)-vinyl]-phenyl}-3,5-dimethyl-1H-pyrazol-4-yl)-(3-diethylamino-pyrrolidin-1-yl)-methanone] | 100
CC(=O)N[C@@H]1CCN(C2CCN(C(=O)c3c(C)nn(-c4cccc(OC(F)(F)F)c4)c3C)CC2)C1 [Example 119, N-((R)-1-{1-[3,5-Dimethyl-1-(3-trifluoromethoxy-phenyl)-1H-pyrazole-4-carbonyl]-piperidin-4-yl}-pyrrolidin-3-yl)-acetamide] | 306
O=C(c1c(C2CC2)nn(-c2cccc(OC(F)(F)F)c2)c1C1CC1)N1CCC(N2CCCC2)CC1 [Example 76, [3,5-Dicyclopropyl-1-(3-trifluoromethoxy-phenyl)-1H-pyrazol-4-yl]-(4-pyrrolidin-1-yl-piperidin-1-yl)-methanone] | 122

Next, values leading:

IC50 [nM] | SMILES
97.2 | Cc1c(C(=O)N2CCC(N3CCC[C@H]3CO)CC2)c(-c2ccncc2)nn1-c1cccc(OC(F)(F)F)c1 [Example 161, [4-((S)-2-Hydroxymethyl-pyrrolidin-1-yl)-piperidin-1-yl]-[5-methyl-3-pyridin-4-yl-1-(3-trifluoromethoxy-phenyl)-1H-pyrazol-4-yl]-methanone]
141 | Cc1nn(-c2cccc(OC(F)(F)F)c2)c(C2CC2)c1C(=O)N1CCC(N2CCC3(C2)NC(=O)NC3=O)CC1 (centres unmarked) [Example 139, 7-{1-[5-Cyclopropyl-3-methyl-1-(3-trifluoromethoxy-phenyl)-1H-pyrazole-4-carbonyl]-piperidin-4-yl}-1,3,7-triaza-spiro[4.4]nonane-2,4-dione]
154 | Cc1nn(-c2cccc(OC(F)(F)F)c2)c(C2CC2)c1C(=O)N1CCC(N2C[C@@H](O)CC2C)CC1 (stereo in doubt) [Example 138, [5-Cyclopropyl-3-methyl-1-(3-trifluoromethoxy-phenyl)-1H-pyrazol-4-yl]-[4-((2R,4S)-4-hydroxy-2-methyl-pyrrolidin-1-yl)-piperidin-1-yl]-methanone]
